Test results: patent US20230148251A1, “COMPOUND NUTRIENT CAPABLE OF REPAIRING DAMAGED INTESTINES OF PIGELETS AND METHOD OF USING THE SAME” (Sichuan Agricultural University, priority 2021, published 2023)

How the values were obtained:
[1] = test system: low-birth-weight suckling piglets; experiment: Arginine supplementation: growth performance of low-birth-weight suckling piglets; format: in vivo; settings: 0.04% arginine in feed vs without
Text: (§1) Three-day-old suckling piglets with low birth weight were used as experimental animals. They were randomly divided into two treatments, fed with 0.04% and without arginine feed. Each treatment had 8 replicates, and each replicate had 1 piglet. The test period was 21 days to investigate the growth performance of piglets.

[2] = test system: low-birth-weight suckling piglets; experiment: Arginine supplementation: serum antioxidant enzyme activity and MDA content; format: in vivo; settings: 0.04% arginine in feed vs without
Text: as §1, with “days. After the test, the piglet serum was collected” for “days”, “antioxidant capacity” for “growth performance”, “the piglet serum.” for “piglets.”

N=C(N)NCCC[C@H](N)C(=O)O [Arginine Group, arginine]
significantly improve: daily gain of weak piglets (in words) [1] | feed intake of weak piglets (in words) [1] | antioxidant capacity of weak piglets (in words) [2]
